Assay results taken from the supplement of paper PMC4862054.
Values joined by “and” are separate entries in the source; they are usually repeats but may differ in a detail not shown here. Equal entries are not always repeated.

Key:
Test in all cases: normalised viability (% of control), CellTiter-Blue; higher = more viable cells (about 100 = DMSO control)
Settings in all cases: incubation time: 72 h
MDA-MB-453 [1] = test system: MDA-MB-453
Experimental: (§1)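 DSRT, CellTiter-Blue viability, 72 h incubation. Signal is normalised to DMSO and benzethonium chloride controls. Value is the normalised response at dose 8.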

CAL-85-1 [2] = test system: CAL-85-1
Experimental: as §1

CAL-51 [3] = test system: CAL-51
Experimental: as §1

HDQ-P1 [4] = test system: HDQ-P1
Experimental: as §1

CAL-148 [5] = test system: CAL-148
Experimental: as §1

DU-4475 [6] = test system: DU-4475
Experimental: as §1

MDA-MB-453 [7] = test system: MDA-MB-453; remark: listed apart in the source
Experimental: (§2)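 DSRT, CellTiter-Blue viability, 72 h incubation. Signal is normalised to DMSO and benzethonium chloride controls. Value is the normalised response at dose 7.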

CAL-85-1 [8] = test system: CAL-85-1; remark: listed apart in the source
Experimental: as §2

CAL-51 [9] = test system: CAL-51; remark: listed apart in the source
Experimental: as §2

HDQ-P1 [10] = test system: HDQ-P1; remark: listed apart in the source
Experimental: as §2

CAL-148 [11] = test system: CAL-148; remark: listed apart in the source
Experimental: as §2

DU-4475 [12] = test system: DU-4475; remark: listed apart in the source
Experimental: as §2

MDA-MB-453 [13] = test system: MDA-MB-453; remark: listed apart in the source
Experimental: (§3)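 DSRT, CellTiter-Blue viability, 72 h incubation. Signal is normalised to DMSO and benzethonium chloride controls. Value is the normalised response at dose 6.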

CAL-85-1 [14] = test system: CAL-85-1; remark: listed apart in the source
Experimental: as §3

CAL-51 [15] = test system: CAL-51; remark: listed apart in the source
Experimental: as §3

HDQ-P1 [16] = test system: HDQ-P1; remark: listed apart in the source
Experimental: as §3

CAL-148 [17] = test system: CAL-148; remark: listed apart in the source
Experimental: as §3

DU-4475 [18] = test system: DU-4475; remark: listed apart in the source
Experimental: as §3

SMILES | normalised viability (MDA-MB-453 [13]) | normalised viability (CAL-85-1 [14]) | normalised viability (CAL-51 [15]) | normalised viability (HDQ-P1 [16]) | normalised viability (CAL-148 [17]) | normalised viability (DU-4475 [18]) | also measured
Cc1nc(Nc2ncc(C(=O)Nc3c(C)cccc3Cl)s2)cc(N2CCN(CCO)CC2)n1 [Dasatinib] (300 nM) |  |  |  |  |  |  | normalised viability (MDA-MB-453 [1]): 99.2% and 103%; normalised viability (CAL-85-1 [2]): 51.2% and 43.6%; normalised viability (CAL-51 [3]): 41.5% and 39.9%; normalised viability (HDQ-P1 [4]): 9.87% and 10.7%; normalised viability (CAL-148 [5]): 90% and 89.1%; normalised viability (DU-4475 [6]): 102% and 104%
Cc1cccc(-c2nn3c(c2-c2ccnc4ccc(C(N)=O)cc24)CCC3)n1 (100 nM) |  |  |  |  |  |  | normalised viability (MDA-MB-453 [7]): 93.4%; normalised viability (CAL-85-1 [8]): 89.5%; normalised viability (CAL-51 [9]): 97.6%; normalised viability (HDQ-P1 [10]): 120%; normalised viability (CAL-148 [11]): 104%; normalised viability (DU-4475 [12]): 108%
Cn1cc(CNCC2CCN(c3ncc(C(=O)NO)cn3)CC2)c2ccccc21 (300 nM) |  |  |  |  |  |  | normalised viability (MDA-MB-453 [1]): 2.81%; normalised viability (CAL-85-1 [2]): 8.58%; normalised viability (CAL-51 [3]): 7.57%; normalised viability (HDQ-P1 [4]): 18.8%; normalised viability (CAL-148 [5]): 1.57%; normalised viability (DU-4475 [6]): 2.97%
CCC/C=C/C=C/C(=O)O[C@H]1/C(=C/C(=O)OC)C[C@H]2C[C@H]([C@@H](C)O)OC(=O)C[C@H](O)C[C@@H]3C[C@H](OC(C)=O)C(C)(C)[C@](O)(C[C@@H]4C/C(=C/C(=O)OC)C[C@H](/C=C/C(C)(C)[C@]1(O)O2)O4)O3 [Bryostatin 1] (3 nM) | 85.9% | 110% | 98.7% | 78.6% | 85.5% | 88.7% | 
Nc1nc(=O)c2c([nH]1)NCC(CNc1ccc(C(=O)N[C@@H](CCC(=O)O)C(=O)O)cc1)N2C=O (mixture of isomers) [Folinic acid] (29.7 nM) | 99.8% | 100% | 97.8% | 140% | 86.6% | 115% | 
C[C@]12O[C@H](C[C@]1(O)CO)n1c3ccccc3c3c4c(c5c6ccccc6n2c5c31)CNC4=O [Lestaurtinib] (30 nM) | 105% | 114% | 111% | 84.5% | 107% | 91.3% | 
CNC(=O)c1cc(Oc2ccc(NC(=O)Nc3ccc(Cl)c(C(F)(F)F)c3)cc2)ccn1 [Sorafenib] (30 nM) | 106% and 99.1% | 97.6% and 103% | 108% and 101% | 81.1% and 72.2% | 109% and 91.4% | 101% and 115% | 
COc1nc(N)nc2c1ncn2[C@@H]1O[C@H](CO)[C@@H](O)[C@@H]1O [Nelarabine] (300 nM) | 102% and 99.1% | 100% and 97.8% | 101% and 97.9% |  | 88.9% and 89.2% | 113% and 116% | 
Cn1cc(CNCC2CCN(c3ncc(C(=O)NO)cn3)CC2)c2ccccc21 (30 nM) | 4.37% | 38.9% | 70.1% | 37.5% | 24.2% | 29.3% | 
CS(=O)(=O)N1CCN(Cc2cc3nc(-c4cccc5[nH]ncc45)nc(N4CCOCC4)c3s2)CC1 [GDC-0941] (300 nM) | 43.4% | 73.2% | 61% | 37.6% | 83.5% | 83.2% | 
